Assay results from the supplement of paper PMC4862054.

What was measured:
Settings in all cases: incubation time: 72 h
BT-474 [1] = assay: normalised viability (% of control), CellTiter-Blue; higher = more viable cells (about 100 = DMSO control)
Outline: (§1)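 The reported quantity is normalised viability at a single listed concentration of the series. Compound in 5 µl medium was pre-dispensed into 384-well plates and 20 µl of breast cancer cell suspension was added for 72 h. A 2 h, 37 °C CellTiter-Blue step (2.5 µl) preceded fluorescence reading at 560/590 nm, and plates were normalised to vehicle (100) and a positive kill control (0).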

BT-549 [2] = assay: as above
Outline: as §1

CAL-148 = assay: as above
Outline: as §1

CAL-85-1 [3] = assay: as above
Outline: as §1

DU-4475 [4] = assay: as above
Outline: as §1

HCC1143 = assay: as above
Outline: as §1

HCC1599 [5] = assay: as above
Outline: as §1

HCC1937 [6] = assay: as above
Outline: as §1

HDQ-P1 = assay: as above
Outline: as §1

Hs578T [7] = assay: as above
Outline: as §1

MDA-MB-231 [8] = assay: as above
Outline: as §1

MDA-MB-453 [9] = assay: as above
Outline: as §1

MDA-MB-468 [10] = assay: as above
Outline: as §1

SK-BR-3 = assay: as above
Outline: as §1

BT-474 [11] = assay: drug sensitivity score (DSS), CellTox Green (DSS (AUC-based score)); higher = stronger drug effect (viability inhibition or cytotoxicity); extreme values may be limits of the assay
Outline: (§2)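 The area under the fitted dose-response curve was used to calculate the drug sensitivity score. Cells from breast cancer lines were incubated for 72 h in 384-well plates with compound at 5 concentrations spaced 10-fold over a 10,000-fold range specific to each compound. Plates were read for CellTox Green and then CellTiter-Glo, and normalised to 0.1 % DMSO and a positive kill control.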

BT-549 [12] = assay: as above
Outline: as §2

CAL-120 = assay: as above
Outline: as §2

CAL-51 = assay: as above
Outline: as §2

CAL-85-1 [13] = assay: as above
Outline: as §2

DU-4475 [14] = assay: as above
Outline: as §2

HCC1599 [15] = assay: as above
Outline: as §2

HCC1937 [16] = assay: as above
Outline: as §2

Hs578T [17] = assay: as above
Outline: as §2

MCF-10A = assay: as above
Outline: as §2

MDA-MB-231 [18] = assay: as above
Outline: as §2

MDA-MB-436 = assay: as above
Outline: as §2

MDA-MB-453 [19] = assay: as above
Outline: as §2

MDA-MB-468 [20] = assay: as above
Outline: as §2

| Compound | normalised viability (BT-474 [1]; 100 nM) [%] | normalised viability (BT-549 [2]; 100 nM) [%] | normalised viability (CAL-148; 10 nM) [%] | normalised viability (CAL-85-1 [3]; 10 nM) [%] | normalised viability (DU-4475 [4]; 10 nM) [%] | normalised viability (HCC1143; 100 nM) [%] | drug sensitivity score (BT-474 [11]) | drug sensitivity score (BT-549 [12]) | drug sensitivity score (CAL-120) | drug sensitivity score (CAL-51) | drug sensitivity score (CAL-85-1 [13]) | drug sensitivity score (DU-4475 [14]) | drug sensitivity score (HCC1599 [15]) | drug sensitivity score (HCC1937 [16]) | drug sensitivity score (Hs578T [17]) | drug sensitivity score (MCF-10A) | drug sensitivity score (MDA-MB-231 [18]) | drug sensitivity score (MDA-MB-436) | drug sensitivity score (MDA-MB-453 [19]) | drug sensitivity score (MDA-MB-468 [20]) | further results |
| --- | --- | --- | --- | --- | --- | --- | --- | --- | --- | --- | --- | --- | --- | --- | --- | --- | --- | --- | --- | --- | --- |
| c1ccc2c(CCNc3ccc(Nc4ccncc4)cc3)c[nH]c2c1 [Serdemetan] | 111 | 113 | 83.5 | 102 | 103 | 76 | 0 | 0 | 0 | 4.55 | 0 | 1.51 | 0 | 0 | 0 | 0 | 2.18 | 0 | 0 | 0 | normalised viability (HCC1599 [5]; 100 nM): 136%; normalised viability (HCC1937 [6]; 100 nM): 95.2%; normalised viability (HDQ-P1; 10 nM): 106%; normalised viability (Hs578T [7]; 100 nM): 77.2%; normalised viability (MDA-MB-231 [8]; 100 nM): 85.8%; normalised viability (MDA-MB-453 [9]; 10 nM): 96.7%; normalised viability (MDA-MB-468 [10]; 100 nM): 108%; normalised viability (SK-BR-3; 100 nM): 79.7% |
| CNC(=O)c1cc(Oc2ccc(NC(=O)Nc3ccc(Cl)c(C(F)(F)F)c3)c(F)c2)ccn1 [Regorafenib] | 98.3 | 112 | 93.6 | 97.1 | 104 | 74.6 | 0 | 0 | 0 | 0 | 0 | 0 | 0 | 3.47 | 0 | 0 | 0 | 0 | 0 | 0 | normalised viability (HCC1599 [5]; 100 nM): 135%; normalised viability (HCC1937 [6]; 100 nM): 90.4%; normalised viability (HDQ-P1; 10 nM): 89.6%; normalised viability (Hs578T [7]; 100 nM): 98.4%; normalised viability (MDA-MB-231 [8]; 100 nM): 75.3%; normalised viability (MDA-MB-453 [9]; 10 nM): 110%; normalised viability (MDA-MB-468 [10]; 100 nM): 107%; normalised viability (SK-BR-3; 100 nM): 89.3% |
| O=C(/C=C/c1cccc(S(=O)(=O)Nc2ccccc2)c1)NO [Belinostat] | 90.4 | 91.2 | 91 | 89.7 | 109 | 96.6 | 8.01 | 0 | 9.87 | 13 | 11.5 | 3.83 | 0 | 0 | 6.63 | 10.5 | 17.8 | 0 | 0.0261 | 2.85 | normalised viability (HCC1599 [5]; 100 nM): 82.8%; normalised viability (HCC1937 [6]; 100 nM): 92.4%; normalised viability (HDQ-P1; 10 nM): 121%; normalised viability (Hs578T [7]; 100 nM): 70.2%; normalised viability (MDA-MB-231 [8]; 100 nM): 93.7%; normalised viability (MDA-MB-453 [9]; 10 nM): 95.8%; normalised viability (MDA-MB-468 [10]; 100 nM): 88.5%; normalised viability (SK-BR-3; 100 nM): 65.7% |
| Cc1[nH]c2ccccc2c1CCNCc1ccc(/C=C/C(=O)NO)cc1 [Panobinostat] |  |  |  |  |  |  | 14.6 | 0 | 13.8 | 18.2 | 17.3 | 6.99 | 4.47 | 14.2 | 18.5 | 1.6 | 19.9 | 0 | 4.41 | 10 | normalised viability (BT-474 [1]; 10 nM): 97.4%; normalised viability (BT-549 [2]; 10 nM): 106%; normalised viability (CAL-148; 1 nM): 102%; normalised viability (CAL-85-1 [3]; 1 nM): 99.3%; normalised viability (DU-4475 [4]; 1 nM): 115%; normalised viability (HCC1143; 10 nM): 86.7%; normalised viability (HCC1599 [5]; 10 nM): 84.7%; normalised viability (HCC1937 [6]; 10 nM): 69.7%; normalised viability (HDQ-P1; 1 nM): 102%; normalised viability (Hs578T [7]; 10 nM): 86.8%; normalised viability (MDA-MB-231 [8]; 10 nM): 94.6%; normalised viability (MDA-MB-453 [9]; 1 nM): 110%; normalised viability (MDA-MB-468 [10]; 10 nM): 76.8%; normalised viability (SK-BR-3; 10 nM): 52.3% |
| CC(C)C[C@@H](C(=O)N[C@H](C(=O)OC1CCCC1)c1ccccc1)[C@H](O)C(=O)NO [Tosedostat] | 110 | 72.7 | 91.2 | 89.4 | 79.7 | 89.3 | 2.81 | 9.06 | 13.6 | 15.2 | 21.8 | 0 | 0 | 0 | 1.64 | 0 | 26.6 | 10.1 | 0 | 20.1 | normalised viability (HCC1599 [5]; 100 nM): 102%; normalised viability (HCC1937 [6]; 100 nM): 67.9%; normalised viability (HDQ-P1; 10 nM): 113%; normalised viability (Hs578T [7]; 100 nM): 94.2%; normalised viability (MDA-MB-231 [8]; 100 nM): 72.6%; normalised viability (MDA-MB-453 [9]; 10 nM): 99.1%; normalised viability (MDA-MB-468 [10]; 100 nM): 64.6%; normalised viability (SK-BR-3; 100 nM): 88.7% |
| COCC[n+]1c2c(n(Cc3cnccn3)c1C)C(=O)c1ccccc1C2=O [YM155] | 1.04 | 34 | 61.4 | 29.7 | 110 | 12.4 | 33.6 | 20.2 | 39 | 28.2 | 42.2 | 3.34 | 11.8 | 29.5 | 5.6 | 34.7 | 30.1 | 27.2 | 12.2 | 37.3 | normalised viability (HCC1599 [5]; 100 nM): 10%; normalised viability (HCC1937 [6]; 100 nM): 3.81%; normalised viability (HDQ-P1; 10 nM): 64.2%; normalised viability (Hs578T [7]; 100 nM): 47.6%; normalised viability (MDA-MB-231 [8]; 100 nM): 1.71%; normalised viability (MDA-MB-453 [9]; 10 nM): 44.7%; normalised viability (MDA-MB-468 [10]; 100 nM): 0.74%; normalised viability (SK-BR-3; 100 nM): 1.25% |
